# US4497811A, “1-Oxadethiacephalosporin compound and antibacterial agent containing the _same” (priority 1983, dated 1985)
# Structures can show the parent of a compound that is named as a salt.
# Legend:
# [1] = test system: gram-positive and gram-negative bacteria; assay: Antibacterial spectra in vitro (MIC), summary in words; type: cell-based; details: compared to cefroxadine
# Text: Minimum inhibitory concentrations (MIC.) (mcg/ml) as determined by serial
# dilution method on agar plates
# Escherichia coli No. 29 = assay: Curative effect by oral administration in mice infected intraperitoneally with Escherichia coli No. 29 (survival over 7 days); type: in vivo; details: for number of surviving mice: three mice in each group, 7 days
# Text: Thus, some tests were made to evaluate the curative effects of the new compound of this invention in therapeutic treatment of bacterial infections when the new compound was orally given to mice (average body weight 20 g) which had been infected with Escherichia coli No. 29. In these tests for therapeutic treatment of the bacterial infection, mice (three mice in each group) were inoculated intraperitoneally with Escherichia coli No. 29 at an inoculmn dose of 3.25×10^5 CFU/mouse and then immediately treated by oral administration of the test compound. For the subsequent 7 days, the mice were kept under observation and the number of surviving mice was counted.
SMILES,antibacterial activity against resistant strains of bacteria [1],antibacterial spectrum (range) [1],number of surviving mice (Escherichia coli No. 29; 0.1 mg/mouse),number of surviving mice (Escherichia coli No. 29; 1 mg/mouse),number of surviving mice (Escherichia coli No. 29; 5 mg/mouse),number of surviving mice (Escherichia coli No. 29; 10 mg/mouse),curative effects in therapeutic treatment of the bacterial infection in vivo (Escherichia coli No. 29; mice infected with Escherichia coli No. 29)
"CSC1=C(C(=O)O)N2C(=O)C(NC(=O)Cc3cccs3)C2OC1 (stereo not shown) [Example 1(b), 7-(2-thienylacetamido)-1-oxa-1-dethia-3-methylthio-3-cephem-4-carboxylic acid]",effective and higher antibacterial activity against resistant strains of bacteria than cefroxadine,wider range of the antibacterial spectrum than cefroxadine,,,,,
"CSC1=C(C(=O)O)N2C(=O)C(NC(=O)Cc3ccsc3)C2OC1 (stereo not shown) [Example 2(b), 7-(3-thienylacetamido)-1-oxa-1-dethia-3-methylthio-3-cephem-4-carboxylic acid]",effective and higher antibacterial activity against resistant strains of bacteria than cefroxadine,wider range of the antibacterial spectrum than cefroxadine,,,,,
"CSC1=C(C(=O)O)N2C(=O)C(NC(=O)C(C(=O)O)c3cccs3)C2OC1 (stereo not shown) [Example 3(b), 7-[2-(2-thienyl)-2-carboxyacetamido]-1-oxa-1-dethia-3-methylthio-3-cephem-4-carboxylic acid]",effective and higher antibacterial activity against resistant strains of bacteria than cefroxadine,wider range of the antibacterial spectrum than cefroxadine,,,,,
"CSC1=C(C(=O)O)N2C(=O)C(NC(=O)C(C(=O)O)c3ccsc3)C2OC1 (stereo not shown) [Example 4(b), 7-[2-(3-thienyl)-2-carboxyacetamido]-1-oxa-1-dethia-3-methylthio-3-cephem-4-carboxylic acid]",effective and higher antibacterial activity against resistant strains of bacteria than cefroxadine,wider range of the antibacterial spectrum than cefroxadine,,,,,
"CO/N=C(\C(=O)NC1C(=O)N2C(C(=O)O)=C(SC)COC12)c1csc(N)n1 (stereo not drawn) [Example 6(b), 7-[2-(2-amino-4-thiazolyl)-2-methoxyiminoacetamido]-1-oxa-1-dethia-3-methylthio-3-cephem-4-carboxylic acid trifluoroacetate (syn-isomer)]",,,1 mice,3 mice,3 mice,3 mice,better curative effects in therapeutic treatment of the bacterial infection in vivo
